One compound from patent publication US9980928B2, “Hydroxy aliphatic substituted phenyl aminoalkyl ether derivatives” (PROUS INSTITUTE FOR BIOMEDICAL RESEARCH, S.A., priority 2012, dated 2018) can be followed below.

“Also recorded” adds a separate entry of the source.

The subject of experiment [1] is p-ERK. Put plainly: Western blot of p-ERK in mouse brain after i.p. administration. It counts as in vivo, mice. Particulars: 30 mg/kg i.p., hippocampus, 1 hour after administration; hydrochloride. The procedure:
Acute biochemical neuronal changes in neurotrophin and synaptic plasticity signaling after the administration of the compounds to be tested may be studied by Western blot assessment of ERK, Akt, phospholipase C (PLC), Trk-B, […] and CAMK II phosphorylation assays in the hippocampus, striatum and cortex at 1 hour post-administration.
Two groups of animals were used: C57BL control mice and mice treated by i.p. administration of a dose of 30 mg/kg of the compound to be tested diluted in saline solution or control saline (n=6 per group).
Animals were sacrificed by cervical dislocation at the corresponding time and different brain regions were dissected (frontal cortex, striatum, hippocampus, cerebellum) after […] of having administered the compounds. […] The supernatants were collected and the protein concentration was measured using the Dc protein assay kit (Bio-Rad, Hercules, Calif., USA) read in a 96-well plate. […]
After primary antibody incubation, membranes were washed with TBS-T and incubated for 1 hour at room temperature with the appropriate horseradish peroxidase-conjugated secondary antibody (1:2000; Promega, Madison, Wis., USA), and the reaction was finally visualized with the Western Blotting Luminol Reagent (Santa Cruz Biotechnology, Santa Cruz, Calif., USA). Western blot replicates were scanned and quantified using a computer-assisted densitometric analysis.
Background: In western blotting, separated proteins are transferred to a membrane and probed.

Experiment [2] has as its system J20 mouse model and wild-type mice. As to the kind of experiment: Morris water maze test in old wild-type and J20 mice. The settings on record: 30 mg/kg i.p. It counts as in vivo. An excerpt:
Familial Alzheimer's disease (AD) is associated with mutations that lead to the production of the β-amyloid 42 (Aβ42) peptide, a constituent of the characteristic amyloid plaques diagnostic of AD. These mutations occur at the proteolytic cleavage sites in the gene encoding the amyloid precursor protein (APP), and in the genes for presenilins 1 and 2 (PSEN1 and PSEN2), enzymes involved in APP cleavage. […] The J20 mouse model is a suitable experimental animal model for testing the activity of drugs on cognitive performance because these mice show robust impairment in spatial learning and spatial reference memory (Karl, T. et al. Behav Brain Res 2012, 228(2): 392-97; Garcia-Barroso, C. et al. Neuropharmacology 2013, 64: 114-23). The effects of Example 2 on spatial memory and learning in the J20 mouse model using the Morris water maze test (Vorhees, Ch. V. and Williams, M. T. Nat Protoc 2006, 1(2): 848-58) were investigated in our laboratory.
The Morris water maze test was applied to 45 old male mice. Twenty wild-type and 25 J20 mice (n=10-11 for each group of treatment/genotype; 10-14 months of age) were treated with vehicle or Example 2 at 30 mg/kg i.p. Percent times in quadrants, escape latencies, distance to goal and other parameters were recorded and compared between groups to assess the compound's activity.

As for `CNCCC(Oc1ccc(CCO)cc1)c1ccccc1.Cl` (single isomer, unassigned) [Example 2, 2-[4-[3-(Methylamino)-1-phenylpropoxy]phenyl]ethanol hydrochloride], the “p-ERK levels (ERK1/2 phosphorylation)” value in experiment [1] is reported as “positive significant increase; also recorded: trend for an increase”. Moreover, the “visuospatial memory and learning” value in experiment [2] (J20 mice) is “positive effect in some sessions”; in experiment [2] (old wild type mice), “increase in visuospatial memory and learning”.
